From article PMC6057649, “Development of NanoLuc-PEST expressing Leishmania mexicana as a new drug discovery tool for axenic- and intramacrophage-based assays” (PLoS Neglected Tropical Diseases, 2018)

System: NanoLuc-PEST expressing L. mexicana axenic amastigotes
Experiment: microbe, parasite or virus in culture
Assay type: cell-based
Settings: for Relative Bioluminescence (%) / viability at 2 µM / viability at 10 µM: 72 hours, relative to DMSO only control, n = 4; for EC50: hit compounds from the axenic amastigote screen, S3 Table, read-out: EC50, Axenic Amastigotes; for viability at 2 µM / viability at 10 µM: Leishmania mexicana, read-out: Relative Bioluminescence (%)

Row | Compound | Relative Bioluminescence (%) (2 µM compound) | Relative Bioluminescence (%) (10 µM compound) | EC50 [nM] | viability at 2 µM (2 µM compound) [%] | viability at 10 µM (10 µM compound) [%]
1 | NC(=O)c1cc(-c2ccsc2)ccc1OCCOc1ccccc1 [MMV687138] | 56.61 | 48.25 | – | – | –
2 | CCCCS(=O)(=O)Nc1ccc2cnn(C)c2c1 [MMV687145] | 132.61 | 130.77 | – | – | –
3 | Cc1cc(C)c2cc(C(=O)NC3CCCCCCC3)[nH]c2c1 [MMV687146] | 98.04 | 84.77 | – | – | –
4 | COc1ccc(Cn2cnc3c(-c4ccco4)nc(Cl)nc32)cc1 [MMV687170] | 107.56 | 104.36 | – | – | –
5 | O=C(C1CCN(c2cc(-n3cccc3)ncn2)CC1)N1CCc2ccccc2C1 [MMV687172] | 73.27 | 54.36 | – | – | –
6 | CCc1ccc([C@@H]2C[C@H](C(F)(F)F)n3ncc(C(=O)NCc4ccc(OC)cc4)c3N2)cc1 [MMV687180] | 49.23 | 1.44 | – | – | –
7 | COc1ccc2nc(C)cc(OCC(=O)Nc3ccccc3OC)c2c1 [MMV687188] | 75.17 | 98.10 | – | – | –
8 | COc1ccc2nc(C)cc(OCC(=O)NCc3ccccc3)c2c1 [MMV687189] | 92.36 | 81.16 | – | – | –
9 | CC(C)(C(=O)Nc1ccc(F)cc1)n1cc(-c2ccccc2F)cn1 [MMV687239] | 106.04 | 118.80 | – | – | –
10 | NC(=O)c1cc(Br)ccc1OCCOc1ccccc1 [MMV687243] | 65.34 | 78.50 | – | – | –
11 | CN1CCN(S(=O)(=O)c2ccc(-c3ccc4c(Nc5ccc6n[nH]nc6c5)ccnc4c3)cc2)CC1 [MMV687246] | 103.95 | 82.04 | – | – | –
12 | Nc1nc2cc(-c3cncc(Oc4ccc(F)cc4)c3)ccc2[nH]1 [MMV687248] | 81.54 | 88.99 | – | – | –
13 | Cn1c(=O)c2c(S(C)(=O)=O)snc2n(C)c1=O [MMV687251] | -4.37 | -0.24 | 480 | – | –
14 | CCCCc1ccc(C(=O)Nc2nccc3ccccc23)nc1 [MMV687254] | 63.72 | -0.07 | – | – | –
15 | CC(C)=CCC/C(C)=C\CNCCNC1C2CC3CC(C2)CC1C3 (stereo not shown) [MMV687273] | 68.48 | 81.32 | – | – | –
16 | CCc1nc2ccc(Cl)cn2c1C(=O)NCc1ccc(N2CCC(c3ccc(OC(F)(F)F)cc3)CC2)cc1 [MMV687696] | 113.56 | 57.87 | – | – | –
17 | O=C(NCc1cc(Cl)cc(Cl)c1)c1c(C(F)(F)F)nc2ccccn12 [MMV687699] | 81.42 | 62.05 | – | – | –
18 | Nc1ncnc2c1ncn2[C@@H]1O[C@H](COS(=O)(=O)NC(=O)c2ccccc2O)[C@@H](O)[C@H]1O [MMV687700] | 67.55 | 61.64 | – | – | –
19 | COc1cccc(-c2nc3c(N4CCCC4)cccc3n2CC2CCCN2)n1 (stereo not shown) [MMV687703] | 48.25 | 76.96 | – | – | –
20 | c1ccc(Oc2ccc(-c3cc(N4CCNCC4)[nH]n3)cc2)cc1 [MMV687706] | 85.99 | 75.35 | – | – | –
21 | O=C1O[C@@H](CO)CN1c1cc(F)c(C2=CCN(Cc3ccccc3)CC2)c(F)c1 [MMV687729] | 76.47 | 62.67 | – | – | –
22 | CCCCOC(=O)Nc1cc2[nH]c(C3CCCCC3)nc2cc1N1CCCC1 [MMV687730] | 85.81 | 52.52 | – | – | –
23 | Cc1cc(OCC(=O)NCc2ccccc2)c2cc(Br)ccc2n1 [MMV687747] | 76.47 | 30.38 | – | – | –
24 | c1ccc(C[C@@H]2CN(c3nccc(Oc4ccc(-n5ccnc5)cc4)n3)CCN2)cc1 [MMV687749] | 66.01 | 56.67 | – | – | –
25 | c1ccc(Oc2ccc(-c3cc(C4CCOCC4)[nH]n3)cc2)cc1 [MMV687762] | 41.49 | 31.40 | – | – | –

Row | Compound | Relative Bioluminescence (%) (2 µM compound) | Relative Bioluminescence (%) (10 µM compound) | EC50 [nM] | viability at 2 µM (2 µM compound) [%] | viability at 10 µM (10 µM compound) [%]
26 | Cc1cnc(N2CCN[C@@H](Cc3ccccc3)C2)nc1Oc1ccc(-n2ccnc2)cc1 [MMV687765] | 69.43 | 74.28 | – | – | –
27 | CC1(C)OB(O)c2ccc(C3=NOC(c4cc(Cl)c(F)c(Cl)c4)(C(F)(F)F)C3)cc21 (stereo not shown) [MMV687775] | 54.77 | 7.40 | – | – | –
28 | Cc1cc(C2=NOC(c3cc(Cl)c(F)c(Cl)c3)(C(F)(F)F)C2)ccc1C(=O)NCc1ccc2c(c1)C(C)(C)OB2O (stereo not shown) [MMV687776] | 57.43 | -1.15 | – | – | –
29 | CC1(C)Cc2c(c(N3CCOCC3)nc3snc(Br)c23)CO1 [MMV687794] | 97.30 | 72.05 | – | – | –
30 | NCC[C@H](O)C(=O)N[C@@H]1C[C@H](N)[C@@H](O[C@H]2O[C@H](CN)[C@@H](O)[C@H](O)[C@H]2O)[C@H](O)[C@H]1O[C@H]1O[C@H](CO)[C@@H](O)[C@H](N)[C@H]1O [MMV687796, Amikacin, reference compound] | – | – | – | 79.3 | 58.2
31 | CC(C)/N=c1\cc2n(-c3ccc(Cl)cc3)c3ccccc3nc-2cc1Nc1ccc(Cl)cc1 [MMV687800, Clofazimine, reference compound] | – | – | – | 41.1 | 37.9
32 | CC[C@@H](CO)NCCN[C@@H](CC)CO [MMV687801, Ethambutol, reference compound] | – | – | – | 98.6 | 127
33 | CC(=O)NC[C@H]1CN(c2ccc(N3CCOCC3)c(F)c2)C(=O)O1 [MMV687803, Linezolid, reference compound] | – | – | – | 76.5 | 111
34 | O=C(Nc1ccc(C(F)(F)F)c(C(F)(F)F)c1)c1cc(Cl)ccc1O [MMV687807] | 0.88 | 0.53 | 250 | – | –
35 | CN1CCN(CCCOc2ncc(Nc3ncc(-c4ccc(C(F)(F)F)c(F)c4)nc3C(N)=O)cn2)CC1 [MMV687812] | 66.08 | 77.79 | – | – | –
36 | O=C1O[C@@H](COc2ccon2)CN1c1cc(F)c(C2=CCN(Cc3ccccc3)CC2)c(F)c1 [MMV687813] | 52.93 | 58.34 | – | – | –
37 | Cc1cccc(-c2nc(Nc3ccncn3)c3sccc3n2)n1 [MMV688122] | 61.39 | 16.72 | – | – | –
38 | CCc1ccc(S(=O)(=O)Nc2cc(CN3CCN(CCC(C)C)CC3)ccc2C)cc1 [MMV688124] | 85.13 | 56.21 | – | – | –
39 | CCCc1ccc(S(=O)(=O)Nc2ccc(CN3CCN(CC4CC4)CC3)cc2)cc1 [MMV688125] | 86.53 | 100.33 | – | – | –
40 | c1ccc(Oc2ccc(-c3cncc(-c4ccc5[nH]ccc5c4)n3)cc2)cc1 [MMV688178] | 91.24 | 94.95 | – | – | –
41 | NC(N)=Nc1ccc(-c2ccc(-c3ccc(N=C(N)N)cc3Cl)o2)c(Cl)c1 [MMV688179] | 105.96 | 54.50 | – | – | –
42 | Cc1nn(C)c(C)c1NS(=O)(=O)c1c(Cl)cc(-c2ccnc(N3CCNCC3)c2)cc1Cl [MMV688180] | 98.32 | 81.67 | – | – | –
43 | COc1ccc(-c2cnc3cnc(-c4cccc(OC(C)C)c4)cn23)cc1 [MMV688270] | 58.63 | 51.88 | – | – | –
44 | N=C(N)Nc1ccc(-c2ccc(-c3ccc(N=C(N)N)c(Cl)c3)o2)cc1Cl [MMV688271] | 98.92 | 56.10 | – | – | –
45 | Nc1ccc2ncnc(Nc3ccc(OCc4cccc(F)c4)c(Cl)c3)c2c1 [MMV688273] | 63.86 | 0.09 | – | – | –
46 | O=C(CN1CCOCC1)Nc1ccc2ncnc(Nc3ccc(OCc4cccc(F)c4)c(Cl)c3)c2c1 [MMV688274] | 72.23 | 7.31 | – | – | –
47 | CC1=Nc2ccc(Cl)cc2C(O)(c2ccc(C)cc2)N1CCN1CCCCC1 (stereo not shown) [MMV688279] | 70.45 | 75.33 | – | – | –
48 | CN1CCN(S(=O)(=O)c2ccc(-c3ccc4c(Nc5ncc(Cl)cn5)ccnc4c3)cc2)CC1 [MMV688283] | 58.40 | 101.72 | – | – | –
49 | COc1ccc(-c2nnc3ccc(-c4cccc(C(C)C)c4)cn23)cc1OC [MMV688313] | 55.91 | 18.47 | – | – | –
